What was measured:
human mGlu5 receptor [1] = target: T1, human mGlu5 receptor (Homo sapiens, UniProt P41594); test: Bodipy-FL GTPγS activation of purified Gq/Gs by purified receptor ([…] ligand); pEC50 from IP-One assay in HEK293 cells; format: biochemical; set-up: gene GRM5; mGlu5-Δ856 (C-terminus truncated after Ala856)
Target sequence in this assay (P41594 21-856): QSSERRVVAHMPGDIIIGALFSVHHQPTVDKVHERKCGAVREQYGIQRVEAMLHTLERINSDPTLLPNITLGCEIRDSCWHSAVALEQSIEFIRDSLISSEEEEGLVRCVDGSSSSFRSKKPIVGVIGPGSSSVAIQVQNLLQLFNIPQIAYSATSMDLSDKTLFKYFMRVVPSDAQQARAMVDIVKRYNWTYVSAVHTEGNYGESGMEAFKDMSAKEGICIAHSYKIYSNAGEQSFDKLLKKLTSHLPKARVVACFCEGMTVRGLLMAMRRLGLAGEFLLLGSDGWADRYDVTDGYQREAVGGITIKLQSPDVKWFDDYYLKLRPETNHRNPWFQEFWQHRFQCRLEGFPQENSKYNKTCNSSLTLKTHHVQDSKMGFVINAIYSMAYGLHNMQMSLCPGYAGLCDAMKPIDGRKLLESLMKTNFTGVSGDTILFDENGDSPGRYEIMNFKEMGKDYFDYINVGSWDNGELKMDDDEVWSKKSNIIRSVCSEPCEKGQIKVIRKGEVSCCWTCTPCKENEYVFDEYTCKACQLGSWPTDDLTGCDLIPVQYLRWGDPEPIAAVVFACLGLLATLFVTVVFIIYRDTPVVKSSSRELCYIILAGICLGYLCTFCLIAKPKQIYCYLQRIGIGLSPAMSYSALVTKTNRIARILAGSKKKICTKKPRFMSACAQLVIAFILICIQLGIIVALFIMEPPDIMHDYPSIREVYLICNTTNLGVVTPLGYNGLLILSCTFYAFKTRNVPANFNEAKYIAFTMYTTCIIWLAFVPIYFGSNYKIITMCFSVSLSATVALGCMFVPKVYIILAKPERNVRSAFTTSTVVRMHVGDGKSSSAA

human mGlu5 receptor [2] = target: T1, human mGlu5 receptor; test: IP-One accumulation in transfected HEK293 cells; format: cell-based; set-up: gene GRM5; full-length wild-type (SNAP-tagged)
Target sequence in this assay (P41594 21-1212): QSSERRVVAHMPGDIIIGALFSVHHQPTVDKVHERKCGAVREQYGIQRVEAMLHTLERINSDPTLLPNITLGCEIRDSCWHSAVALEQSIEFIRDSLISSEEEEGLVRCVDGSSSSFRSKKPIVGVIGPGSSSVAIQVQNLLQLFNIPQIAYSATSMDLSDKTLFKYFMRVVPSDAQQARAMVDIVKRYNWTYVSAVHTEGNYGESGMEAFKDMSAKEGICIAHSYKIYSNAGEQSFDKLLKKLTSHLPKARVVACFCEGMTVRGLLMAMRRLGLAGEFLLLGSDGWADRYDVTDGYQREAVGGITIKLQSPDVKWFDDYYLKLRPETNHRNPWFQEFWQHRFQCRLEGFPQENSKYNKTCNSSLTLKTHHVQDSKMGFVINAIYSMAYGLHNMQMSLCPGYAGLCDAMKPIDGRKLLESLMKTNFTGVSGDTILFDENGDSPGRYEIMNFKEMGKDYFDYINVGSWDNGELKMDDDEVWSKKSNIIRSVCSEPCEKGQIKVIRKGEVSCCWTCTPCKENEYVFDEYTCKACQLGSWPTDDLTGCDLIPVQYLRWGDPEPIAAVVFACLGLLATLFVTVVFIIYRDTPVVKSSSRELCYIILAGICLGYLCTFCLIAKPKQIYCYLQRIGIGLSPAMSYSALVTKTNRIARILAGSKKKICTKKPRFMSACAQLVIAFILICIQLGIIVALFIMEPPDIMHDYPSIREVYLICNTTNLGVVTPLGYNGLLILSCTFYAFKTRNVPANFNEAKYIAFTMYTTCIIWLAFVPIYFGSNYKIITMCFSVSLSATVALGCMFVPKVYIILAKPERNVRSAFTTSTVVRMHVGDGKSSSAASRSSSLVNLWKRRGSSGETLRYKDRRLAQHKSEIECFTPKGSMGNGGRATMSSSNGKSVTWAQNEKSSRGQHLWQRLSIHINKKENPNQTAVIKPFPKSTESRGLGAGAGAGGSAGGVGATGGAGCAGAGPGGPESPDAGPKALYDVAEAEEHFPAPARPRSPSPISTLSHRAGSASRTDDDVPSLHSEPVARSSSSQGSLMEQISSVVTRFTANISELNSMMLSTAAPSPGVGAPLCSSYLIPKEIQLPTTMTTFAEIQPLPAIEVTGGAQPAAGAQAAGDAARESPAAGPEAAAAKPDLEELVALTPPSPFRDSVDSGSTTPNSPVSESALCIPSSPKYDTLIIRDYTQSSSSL

| SMILES | EC50 (human mGlu5 receptor [1]) [µM] | EC50 (human mGlu5 receptor [2]) [µM] |
| --- | --- | --- |
| C[C@@H](NC(=O)c1ccc(C#Cc2cccc(F)c2)cn1)C(C)(C)O [VU0424465, (R)-5-((3-fluorophenyl)ethynyl)-N-(3-hydroxy-3-methylbutan-2-yl) picolinamide] | 0.00295 | – |
| N[C@@H](Cn1oc(=O)[nH]c1=O)C(=O)O [quisqualate] | – | 0.0309 |

From PMC5849714, “Direct coupling of detergent purified human mGlu5 receptor to the heterotrimeric G proteins Gq and Gs” (Scientific Reports, 2018)
